From patent EP4682144A1, “SOLID FORM OF PYRROLIDONE DERIVATIVE AS GLUCOKINASE ACTIVATOR” (Hua Medicine (Shanghai) Ltd., priority 2023, dated 2024)

Columns and labels:
Type in all cases: physicochemical
[1] = Preliminary solubility test in solvents at room temperature; conditions: listed as crystal form A of the free state
Experimental: Table 10 Solubility range of the starting material sample at room temperature
The solubility range in the corresponding solvent was calculated based on the mass of the sample and the volume of the added solvent, as shown in Table 28. The data were used as a base to guide the selection of solvent in screening tests. Table 28 Preliminary solubility of crystal form A of the free state at room temperature
The solubility range in the corresponding solvent was calculated based on the mass of the sample and the volume of the added solvent, as shown in Table 35. The data were used as a base to guide the selection of solvent in the screening tests.

[2] = High-temperature stability test (60°C, HPLC)
Description: (§1) The resulting sample was sampled at day 6, day 14 and day 34 for HPLC analysis.

[3] = Dynamic vapour sorption (DVS) test
Experimental: A certain amount of powder was taken and put into a sample pan, and hygroscopicity of the sample was evaluated with DVS according to the following instrument method:

[4] = Photostability test (direct sunlight, HPLC)
Description: The resulting sample was sampled at day 4 and day 15 for HPLC analysis.

[5] = High-humidity stability test (90% RH, HPLC)
Description: as §1

[6] = Dissolution stability in different pH and biologically relevant media (XRPD before and after); conditions: pH 1.0, 1.2, 3.0, 4.5, 5.0, 6.8, 7.0, 7.4, 9.0, FaSSGF (pH 1.6), FaSSIF (pH 6.5), FeSSIF (pH 5.0)
[7] = Forced degradation stability test (heat, humidity and heat, light)
Experimental: Crystal form A of the free state was placed under the following different conditions for the forced degradation stability test: • About 10 mg of the sample powder was weighed into a vial and placed under the conditions of 50 °C, 80°C, and 40 °C/75%RH (unsealed) for 1 day, 2 weeks, and 4 weeks, respectively. And then, the thermal stability was evaluated. • About 10 mg of the sample powder was weighed and placed in a transparent vial, an amber vial, and a transparent vial sealed with aluminum foil, respectively. Those vials were placed in a light box for 10 days, with a total illumination of 1.2×10^6 Lux·hr and a near-UV energy not less than 200w·hr/m^2, for photostability evaluation.
The samples were taken at each time point for HPLC and XRPD analysis to evaluate the chemical and physical stability.

## CC(C)C[C@@H](C(=O)Nc1ccn(C[C@@H](O)COC(=O)c2cccnc2)n1)N1CC(Oc2ccccc2Cl)=CC1=O [Free state crystal form A, (R)-3-(3-((S)-2-(4-(2-chlorophenoxy)-2-oxo-2,5-dihydro-1H-pyrrol-1-yl)-4-methylpentanamido)-1H-pyrazol-1-yl)-2-hydroxypropyl nicotinate]
[1]; 1,4-Dioxane, room temperature
  Solubility (mg/mL): S>40.0 mg/mL
[1]; Acetone, room temperature
  Solubility (mg/mL): S>40.0 mg/mL
[1]; CHCl3, room temperature
  Solubility (mg/mL): S>40.0 mg/mL
[1]; DCM, room temperature
  Solubility (mg/mL): S>40.0 mg/mL
[1]; DMAc, room temperature
  Solubility (mg/mL): S>40.0 mg/mL
[1]; DMSO, room temperature
  Solubility (mg/mL): S>42.0 mg/mL
[1]; H2O, room temperature
  Solubility (mg/mL): S<1.0 mg/mL
[1]; MTBE, room temperature
  Solubility (mg/mL): S<1.0 mg/mL
[1]; MeOH, room temperature (25±3 °C)
  Solubility (mg/mL): S>42.0 mg/mL
[1]; NMP, room temperature
  Solubility (mg/mL): S>40.0 mg/mL
[1]; THF, room temperature
  Solubility (mg/mL): S>40.0 mg/mL
[1]; Toluene, room temperature
  Solubility (mg/mL): S<1.0 mg/mL
[1]; n-Heptane, room temperature
  Solubility (mg/mL): S<1.1 mg/mL
[2]; 0h
  Purity (Area%): 98.17 Area%
[2]; 60°C for 14 days
  stability at high temperature: still stable
[2]; 60°C, Day 6, without cover
  Purity (Area%): 99.03 Area%
[2]; 60°C, Day 14, without cover
  Purity (Area%): 99.11 Area%
[3]; DVS, 25 °C, 80%RH
  Water sorption capacity at 80%RH, %: 0.3556%
[3]; DVS, 25 °C, 90%RH
  Water sorption capacity at 90%RH, %: 0.4782%
[3]; DVS, 25 °C, 95%RH
  Water sorption capacity at 95%RH, %: 0.6525%
[3]; relative humidity of 95%
  moisture-induced weight gain: less than 0.7%
[3]; relative humidity of less than or equal to 90%, listed as crystal form A of the free state
  moisture-induced weight gain: less than 0.5%
[4]; 0 hour
  Purity (Area%): 98.17 Area%
[4]; Photostability Day 4, direct sunlight
  Purity (Area%): 99.07 Area%
[4]; Photostability Day 15, direct sunlight
  Purity (Area%): 99.10 Area%
[4]; sunlight for 15 days
  stability under sunlight: still stable
[5]; 0 hour
  Purity (Area%): 98.17 Area%
[5]; 90% relative humidity for 14 days
  stability at high humidity: still stable
[5]; 90%RH, Day 6, without cover
  Purity (Area%): 98.99 Area%
[5]; 90%RH, Day 14, without cover
  Purity (Area%): 99.09 Area%
[6]
  crystal form before and after solubility test (XRPD): does not change
[7]; 40°C/75%RH (unsealed), 2 weeks, HPLC
  Purity, %: 99.15%
[7]; 40°C/75%RH (unsealed), 4 weeks, HPLC
  Purity, %: 99.15%
[7]; 40°C/75%RH (unsealed), 24 hours, HPLC
  Purity, %: 99.09%
[7]; 50°C, 2 weeks, HPLC
  Purity, %: 99.10%
[7]; 50°C, 4 weeks, HPLC
  Purity, %: 99.11%
[7]; 50 °C, 80°C, 40 °C/75%RH (unsealed)
  high-temperature and humidity-thermal stability: excellent
[7]; 50 °C, 80°C, 40 °C/75%RH for 1 day, 2 weeks, 4 weeks, light box 10 days
  crystalline form under forced degradation test conditions (XRPD): does not change
[7]; 50°C, 24 hours, HPLC
  Purity, %: 99.08%
[7]; 80°C, 2 weeks, HPLC
  Purity, %: 99.12%
[7]; 80°C, 4 weeks, HPLC
  Purity, %: 99.14%
[7]; 80°C, 24 hours, HPLC
  Purity, %: 99.12%
[7]; Light-amber vial, 10 days, light box, […]10^6 Lux·hr
  Purity, %: 99.17%
[7]; Light-transparent vial sealed with aluminum foil, 10 days, light box, […]10^6 Lux·hr
  Purity, %: 99.17%
[7]; Light-transparent vial, 10 days, light box, […]10^6 Lux·hr
  Purity, %: 99.10%
[7]; Starting, 0h, HPLC
  Purity, %: 99.10%
[7]; light box 10 days, […]10^6 Lux·hr
  effect of light on the stability: no effect
